From patent publication US10052304B2, “Compositions and methods for cancer therapy” (UNIVERSITY OF IOWA RESEARCH FOUNDATION, priority 2015, dated 2018)
“Also recorded” adds a separate entry of the source.

What was measured:
[1] = tested on: NHAs; test: Cellular labile iron pool (Calcein-AM flow cytometry), NHAs; type: cell-based, human; details: increasing doses of ascorbate
Protocol: The labile iron pool (LIP) was visualized using the fluorescent dye Calcein-AM as previously described (Epsztejn et al., 1997) with modifications. After labeling, samples were divided into two flow cytometry sample tubes, to which 100 μM 2′,2′-bipyridyl (BIP) was added to one tube and analyzed by flow cytometry. BIP tubes were incubated for at least 15 minutes before analysis to allow for full chelation of intracellular labile iron. The LIP (A.U.)=MFIBIP−MFINoBIP was normalized against the control samples to calculate the relative labile iron pool.
The labile iron pool (LIP) was visualized using the fluorescent dye Calcein-AM as previously described with modifications (Epsztejn et al., 1997). Briefly, after sample treatment, cells were trypsinized, spun at 1,200 rpm for 5 min, and resuspended at approximately 1×10^6 cells mL-1 in 500 nM Calcein-AM in PBS. Samples were incubated for 15 min at 4% O2 in a humidity controlled environment (37° C., 5% CO2). Subsequently, samples were pelleted, washed in PBS, and resuspended in 1 mL PBS before dividing each sample into two flow cytometry sample tubes, to which 100 μM 2′,2′-bipyridyl (BIP) was added to one tube. Samples were kept at room temperature and analyzed on a LSR II Flow Cytometer (BD Biosciences; λex=488 nm, λem=515/20 nm). […]

[2] = tested on: NCI-H292 cells; test: Clonogenic survival assay, NCI-H292 NSCLC cells; type: cell-based, human
Protocol: (§1) Treatment conditions for individual experiments are as described in the figure legends and summarized in the Supplemental Experimental Procedures.
(§2) 1-2×10^5 cells were plated in 60 mm cell culture dishes and grown in their respective media for 48 h before exposed to experimental conditions. […] For AdGPx1 experiments, cells were supplemented with 50 nM sodium selenite following transduction and throughout clonogenic growth. […] After treatment, cells were washed with PBS and clonogenic assay was completed in their respective media. Briefly, floating and attached cells were collected and total cells per plate were counted. An experimentally derived number of cells were plated into each well of a 6-well cell culture plate in their respective media. For HEL92.1.7 suspension cells, cells were seeded in a top layer of 0.4% (w/v) agarose to allow for quantifiable colony formation. […] Normalized survival fractions were calculated by comparing plating efficiencies of each treatment group against the control group within a given experiment.

[3] = tested on: ferritin; details: read-out: Km of ascorbate-mediated Fe^+2 release from ferritin; cited from earlier work
[4] = tested on: H1299 cells; test: Clonogenic survival assay, H1299 NSCLC cells; type: cell-based, human
Protocol: as §1, §2

[5] = tested on: U87 cells; test: Clonogenic survival assay, U87 GBM cells; type: cell-based, human
Protocol: as §1, §2

[6] = IV delivery; cited from earlier work
[7] = tested on: ARP1 myeloma cells; test: Luciferase-labeled ARP1 myeloma xenograft, intravenous injection, NOD-SCID mice; type: in vivo; details: ascorbate 4 g/kg daily
Source text: The first model used is a luciferase labeled human myeloma cell line ARP1.

[8] = tested on: stage IV pancreas cancer patients; details: cited from earlier work
[9] = tested on: U87 xenografts; test: GBM (U87) flank xenograft model; type: in vivo, mice
Protocol: Female 4-6 week old female athymic-nu/nu mice were purchased from Envigo (previously Harlan Laboratories) and housed in the Animal Care Facility at the University of Iowa (Iowa City, Iowa), and all procedures were approved by the University of Iowa Institutional Animal Care and Use Committee and conformed to NIH guidelines. 1×10^6 H292 or U87 cells were injected subcutaneously into the right rear flank and mice were euthanized and sacrificed when tumor length exceeded 1.5 cm in any dimension.
1×10^6 H292 or U87 cells were injected subcutaneously into the right rear flank. […] Tumors were measured every other day with Vernier calipers (volume=(length×width×(width/2)) and mice were euthanized and sacrificed when tumor length exceeded 1.5 cm in any dimension.

[10] = tested on: NSCLC cells; test: Intracellular H2O2 with PeroxyOrange-1, NSCLC cells; type: cell-based, human; details: ascorbate 15 pmol cell^−1
Protocol: To visualize intracellular H2O2 levels, the selectively sensitive fluorescent probe PeroxyOrange-1 was utilized as previously described with modifications (Dickinson et al., 2010). 1×10^5 cells were plated and grown in their respective media for 48 h. The complete protocol was conducted in the dark with minimal ambient lighting. Cells were washed with PBS and incubated with 10 uM PO-1 in phenol red free RPMI supplemented with HBE growth supplements for 1 h at 37° C. Cells were then washed in PBS and placed back in phenol red free RPMI supplemented with HBE growth supplements. […] At times indicated, cells were placed on ice for the remainder of the protocol, washed, and trypsinized with phenol red free 0.5% trypsin. After 15 min, cells still attached were scraped and all cells were collected in 15 mL conical vials containing PBS+10% FBS to neutralize the trypsin reaction. Cells were spun at 1200 rpm for 5 min at 4° C., resuspended in 300-500 uL PBS and were run on a LSR II Flow Cytometer (BD Biosciences) with λex=561 nm, λem=585/20 nm. The mean fluorescence intensity (MFI) was analyzed (FlowJo™) and corrected for autoflourescence against unlabeled cells. Normalized MFI was calculated by comparing MFI for a given treatment group against control.

[11] = tested on: ARP1; test: Colony formation on soft agar, ARP1 myeloma cells; type: cell-based, human; details: 1 h treatment, colonies after 10-14 days
Source text: A two-layer agar system was used, and colonies were visualized after 10-14 days.

[12] = 1 h ascorbate + 5 μM carboplatin + 2 Gy IR vs Carbo+IR alone

O=C1O[C@H]([C@@H](O)CO)C(O)=C1O [ascorbate, L-ascorbic acid]
cellular LIP after ascorbate [1]: not seen
sensitization to carboplatin + IR (clonogenic survival) [2, 12]: significantly increased sensitivity to Carbo+IR; also recorded: selectively sensitized
clonogenic survival / cell killing ([2]; ascorbate alone, 1 h exposure): more clonogenic cell killing in NSCLC cell lines than chemotherapy plus radiation; also recorded: dose-dependent clonogenic cell killing
Km [3]: 1300 µM
sensitization to carboplatin + IR (clonogenic survival) [4, 12]: significantly increased sensitivity to Carbo+IR; also recorded: selectively sensitized
clonogenic survival / cell killing ([4]; ascorbate alone, 1 h exposure): more clonogenic cell killing in NSCLC cell lines than chemotherapy plus radiation; also recorded: dose-dependent clonogenic cell killing
sensitization to temozolomide + IR (clonogenic survival) ([5]; 1 h ascorbate + 25 μM temozolomide + 2 Gy IR): selectively sensitized
clonogenic survival / cell killing ([5]; ascorbate alone, increasing concentrations, 1 h): dose-dependent clonogenic cell killing
serum ascorbate concentration achieved (effective therapeutic level) [6]: ≈ 20 mM
tumor growth rate [7]: significantly decreased tumor growth rate
decrease of mean tumor fluorescent intensity vs control ([7]; approximately 15 days): 59%
side effects attributed to the combination ([8]; ascorbate + gemcitabine): rare and included diarrhea and dry mouth
average survival ([8]; pharmacological ascorbate + gemcitabine, stage IV pancreas cancer): 14 months
tolerability (mouse weight) ([9]; ascorbate 4 g kg^−1 IP daily): well tolerated
overall survival ([9]; ascorbate 4 g kg^−1 IP daily + 12 Gy IR/2 fractions + weekly 2.5 mg kg^−1 TMZ): significantly increased overall survival
steady-state levels of H2O2 (PeroxyOrange-1) [10]: significantly increased from baseline
ascorbate dose giving complete growth inhibition (colony formation) [11]: ≥ 10 pmol/cell
